Reference: the supplement of paper PMC11061612

What was measured:
769-P (Kidney Carcinoma) = assay: Bliss excess, mean over the matrix (fraction); higher = more synergy
Outline: (§1)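 Bliss excess equals the observed combination effect minus the expected value EA + EB − EA·EB, where EA and EB are the effects of each agent alone. Combination Emax is the second-highest inhibition within the matrix. Inhibition was scaled from CellTiter-Glo 2.0 luminescence, with 0 set by vehicle wells and 1 by blank wells, after 72 hours of two-drug dosing of cells plated in 1536-well plates.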

EW-7 (Ewing's Sarcoma) = assay: as above
Outline: as §1

IM-9 (Non-Cancerous) = assay: as above
Outline: as §1

[1] = tested on: JHU-022 (Oral Cavity Carcinoma); assay: as above
Outline: as §1

[2] = tested on: KYSE-220 (Esophageal Squamous Cell Carcinoma); assay: as above
Outline: as §1

[3] = tested on: NCI-H1651 (Lung Adenocarcinoma); assay: as above
Outline: as §1

[4] = tested on: NCI-H2087 (Lung Adenocarcinoma); assay: as above
Outline: as §1

5637 (Bladder Carcinoma) = assay: combination Emax (second highest fraction inhibited in the dose matrix, 72 h); higher = more inhibition; extreme values may be limits of the assay
Outline: as §1

A204 (Rhabdomyosarcoma) = assay: as above
Outline: as §1

AU565 (Breast Carcinoma) = assay: as above
Outline: as §1

[5] = tested on: DMS-53 (Small Cell Lung Carcinoma); assay: as above
Outline: as §1

[6] = tested on: EPLC-272H (Other Solid Carcinomas); assay: as above
Outline: as §1

[7] = tested on: ESO26 (Esophageal Adenocarcinoma); assay: as above
Outline: as §1

[8] = tested on: GCT (Other Solid Carcinomas); assay: as above
Outline: as §1

[9] = tested on: HCC1428 (Breast Carcinoma); assay: as above
Outline: as §1

[10] = tested on: Jurkat (T-Lymphoblastic Leukemia); assay: as above
Outline: as §1

[11] = tested on: KYSE-140 (Esophageal Squamous Cell Carcinoma); assay: as above
Outline: as §1

[12] = tested on: LS-411N (Colorectal Carcinoma); assay: as above
Outline: as §1

[13] = tested on: OACp4C (Esophageal Adenocarcinoma); assay: as above
Outline: as §1

RH-41 (Rhabdomyosarcoma) = assay: as above
Outline: as §1

Row | SMILES | Bliss excess (769-P (Kidney Carcinoma)) | Bliss excess (EW-7 (Ewing's Sarcoma)) | Bliss excess (IM-9 (Non-Cancerous)) | Bliss excess [1] | Bliss excess [2] | Bliss excess [3] | Bliss excess [4] | combination Emax (5637 (Bladder Carcinoma)) | combination Emax (A204 (Rhabdomyosarcoma)) | combination Emax (AU565 (Breast Carcinoma)) | combination Emax [5] | combination Emax [6] | combination Emax [7] | combination Emax [8] | combination Emax [9] | combination Emax [10] | combination Emax [11] | combination Emax [12] | combination Emax [13] | combination Emax (RH-41 (Rhabdomyosarcoma))
1 | COc1cc2c(cc1OCCCCCOc1cc3c(cc1OC)C(=O)N1C=C(C)C[C@H]1C=N3)N=C[C@@H]1CC(C)=CN1C2=O [SG3199] + O=C(c1cc(Cc2n[nH]c(=O)c3ccccc23)ccc1F)N1CCN(C(=O)C2CC2)CC1 [Olaparib] (first compound max 0.001 µM, 7x7, partner max 10 µM) | -0.0643 | -0.0341 | -0.0059 | -0.0479 | -0.0151 | -0.0788 | -0.0224 | 0.187 | 0.178 | 0.138 | 0.153 | 0.123 | 0.272 | 0.204 | 0.0458 | 0.356 | 0.0926 | 0.0262 | 0.136 | 0.245
2 | Cc1cc2ncnn2cc1Nc1ncc2c(n1)n(C1CCOCC1)c(=O)n2C [AZD7648] + C=CCn1c(=O)c2cnc(Nc3ccc(N4CCN(C)CC4)cc3)nc2n1-c1cccc(C(C)(C)O)n1 [AZD1775] (first compound max 10 µM, partner max 1 µM) | -0.0082 | 0.0024 | -0.0659 | -0.0239 | -0.0222 | -0.0812 | -0.0176 | 0.792 | 0.43 | 0.547 | 0.204 | 0.832 | 0.466 | 0.452 | 0.238 | 0.886 | 0.838 | 0.574 | 0.814 | 0.927
3 | C[C@@H](c1ccc2nccn2c1)n1nnc2ncc(-c3cnn(C)c3)nc21 [Savolitinib] + CC1(C)CCC(CN2CCN(c3ccc(C(=O)NS(=O)(=O)c4ccc(NCC5CCOCC5)c([N+](=O)[O-])c4)c(Oc4cnc5[nH]ccc5c4)c3)CC2)=C(c2ccc(Cl)cc2)C1 [Venetoclax] (first compound max 1 µM, 7x7, partner max 1 µM) | -0.0419 | -0.0242 | 0.0452 | -0.0621 | -0.0573 | -0.0356 | -0.0716 | 0.0801 | 0.0862 | 0.168 | 0.395 | 0.205 | 0.0719 | 0.0973 | 0.125 | 0.188 | 0.305 | 0.0933 | 0.204 | 0.201
4 | Cc1cc2ncnn2cc1Nc1ncc2c(n1)n(C1CCOCC1)c(=O)n2C [AZD7648] + C[C@@H]1COCCN1C2=NC(=NC(=C2)C3(CC3)[S@](=N)(=O)C)C4=C5C=CNC5=NC=C4 [AZD6738] (first compound max 10 µM, 7x7, partner max 10 µM) | 0.0264 | -0.0058 | -0.0417 | 0.0105 | -0.0122 | 0.0217 | 0.0177 | 0.632 | 0.439 | 0.416 | 0.153 | 0.879 | 0.234 | 0.245 | 0.201 | 0.814 | 0.927 | 0.723 | 0.666 | 0.705
5 | Cc1cc2ncnn2cc1Nc1ncc2c(n1)n(C1CCOCC1)c(=O)n2C [AZD7648] + O=C(c1cc(Cc2n[nH]c(=O)c3ccccc23)ccc1F)N1CCN(C(=O)C2CC2)CC1 [Olaparib] (first compound max 10 µM, 7x7, partner max 10 µM) | -0.024 | -0.0027 | -0.0144 | -0.0682 | -0.0372 | -0.0356 | -0.0207 | 0.25 | 0.246 | 0.213 | 0.128 | 0.53 | 0.155 | 0.243 | 0.147 | 0.508 | 0.197 | 0.0674 | 0.363 | 0.345
6 | CC(=O)c1c(C)c2cnc(Nc3ccc(N4CCNCC4)cn3)nc2n(C2CCCC2)c1=O [Palbociclib] + CN(CC[C@H](CSC1=CC=CC=C1)NC2=C(C=C(C=C2)S(=O)(=O)NC(=O)C3=CC=C(C=C3)N4CCC(CC4)[C@H](C5=CC=CC=C5C6=CC=C(C=C6)Cl)O)S(=O)(=O)C(F)(F)F)CCO [AZD4320] (first compound max 10 µM, 7x7, partner max 1 µM) | – | – | – | – | – | – | – | 0.619 | 0.377 | 0.227 | 1 | 0.594 | 0.0747 | 0.421 | 0.449 | 0.917 | 0.303 | 0.691 | 0.839 | 0.883
7 | CN(CCO)CC[C@H](CSc1ccccc1)Nc1ccc(S(=O)(=O)NC(=O)c2ccc(N3CCC([C@@H](O)c4ccccc4-c4ccc(Cl)cc4)CC3)cc2)cc1S(=O)(=O)C(F)(F)F [AZD4320] + CC(=O)O[C@H]1C(=O)[C@@]2(C)[C@H]([C@H](OC(=O)c3ccccc3)[C@]3(O)C[C@H](OC(=O)[C@H](O)[C@@H](NC(=O)c4ccccc4)c4ccccc4)C(C)=C1C3(C)C)[C@]1(OC(C)=O)CO[C@@H]1C[C@@H]2O [Paclitaxel] (first compound max 1 µM, 7x7, partner max 3 µM) | -0.0444 | 0.132 | 0.0239 | 0.155 | 0.0169 | -0.0099 | 0.13 | – | – | – | – | – | – | – | – | – | – | – | – | –
8 | N#Cc1cnc(Nc2cc(NC[C@H]3CNCCO3)c(C(F)(F)F)cn2)cn1 [SRA737] + Nc1ccn([C@@H]2O[C@H](CO)[C@@H](O)C2(F)F)c(=O)n1 [Gemcitabine] (first compound max 10 µM, 7x7, partner max 0.3 µM) | -0.0313 | 0.0349 | 0.0254 | 0.008 | -0.0155 | 0.0124 | 0.0059 | – | – | – | – | – | – | – | – | – | – | – | – | –
9 | C[C@@H](c1ccc2nccn2c1)n1nnc2ncc(-c3cnn(C)c3)nc21 [Savolitinib] + CN(CC[C@H](CSC1=CC=CC=C1)NC2=C(C=C(C=C2)S(=O)(=O)NC(=O)C3=CC=C(C=C3)N4CCC(CC4)[C@H](C5=CC=CC=C5C6=CC=C(C=C6)Cl)O)S(=O)(=O)C(F)(F)F)CCO [AZD4320] (first compound max 1 µM, 7x7, partner max 1 µM) | – | – | – | – | – | – | – | 0.179 | 0.0836 | 0.182 | 0.994 | 0.257 | 0.127 | 0.2 | 0.476 | 0.556 | 0.236 | 0.277 | 0.78 | 0.806
10 | CN(CCO)CC[C@H](CSc1ccccc1)Nc1ccc(S(=O)(=O)NC(=O)c2ccc(N3CCC([C@@H](O)c4ccccc4-c4ccc(Cl)cc4)CC3)cc2)cc1S(=O)(=O)C(F)(F)F [AZD4320] + Nc1ccn([C@@H]2O[C@H](CO)[C@@H](O)C2(F)F)c(=O)n1 [Gemcitabine] (first compound max 1 µM, 7x7, partner max 0.3 µM) | -0.0672 | 0.0189 | 0.043 | 0.0202 | 0.0369 | 0.0198 | 0.0051 | – | – | – | – | – | – | – | – | – | – | – | – | –
11 | N#Cc1cnc(Nc2cc(NC[C@H]3CNCCO3)c(C(F)(F)F)cn2)cn1 [SRA737] + CCc1c2c(nc3ccc(O)cc13)-c1cc3c(c(=O)n1C2)COC(=O)[C@]3(O)CC [SN-38] (first compound max 10 µM, 7x7, partner max 0.3 µM) | -0.0284 | -0.0597 | 0.0219 | -0.0966 | 0.0163 | -0.0101 | 0.0137 | – | – | – | – | – | – | – | – | – | – | – | – | –
12 | Cc1cc2ncnn2cc1Nc1ncc2c(n1)n(C1CCOCC1)c(=O)n2C [AZD7648] + COc1cc([C@@H]2c3cc4c(cc3[C@@H](O[C@@H]3O[C@@H]5CO[C@@H](C)O[C@H]5[C@H](O)[C@H]3O)[C@H]3COC(=O)[C@H]23)OCO4)cc(OC)c1O [Etoposide] (first compound max 10 µM, 7x7, partner max 10 µM) | 0.0859 | 0.0263 | 0.12 | 0.0522 | 0.066 | 0.073 | 0.0674 | – | – | – | – | – | – | – | – | – | – | – | – | –
13 | N#Cc1cnc(Nc2cc(NC[C@H]3CNCCO3)c(C(F)(F)F)cn2)cn1 [SRA737] + C=CCn1c(=O)c2cnc(Nc3ccc(N4CCN(C)CC4)cc3)nc2n1-c1cccc(C(C)(C)O)n1 [AZD1775] (first compound max 10 µM, partner max 1 µM) | 0.0166 | 0.0142 | 0.156 | -0.0533 | 0.0983 | 0.0846 | 0.0238 | – | – | – | – | – | – | – | – | – | – | – | – | –
14 | N#Cc1cnc(Nc2cc(NC[C@H]3CNCCO3)c(C(F)(F)F)cn2)cn1 [SRA737] + O=c1[nH]cc(F)c(=O)[nH]1 [5-Fluorouracil] (first compound max 10 µM, 7x7, partner max 20 µM) | -0.112 | -0.0504 | 0.0007 | -0.0078 | -0.0134 | -0.0323 | -0.0122 | – | – | – | – | – | – | – | – | – | – | – | – | –
15 | COc1nnc2ccc(N3CCC(c4ccc(OCCN5CCN(C)C(=O)[C@H]5C)cc4)CC3)nn12 [AZD5153] + CN(CC[C@H](CSC1=CC=CC=C1)NC2=C(C=C(C=C2)S(=O)(=O)NC(=O)C3=CC=C(C=C3)N4CCC(CC4)[C@H](C5=CC=CC=C5C6=CC=C(C=C6)Cl)O)S(=O)(=O)C(F)(F)F)CCO [AZD4320] (first compound max 1 µM, 7x7, partner max 1 µM) | – | – | – | – | – | – | – | 0.957 | 0.464 | 0.386 | 0.987 | 0.868 | 0.754 | 0.595 | 0.915 | 0.975 | 0.695 | 0.978 | 0.918 | 1
